One block for each compound: values may come before it. The source made the active and inactive calls. No cut-off for these calls is given here.
Tests used:
[1] = target: T1, Phosphatidylinositol 4,5-bisphosphate 3-kinase catalytic subunit gamma isoform (Homo sapiens, UniProt P48736); experiment: Inhibition of PI3Kgamma (unknown origin) using PIP2 as substrate measured after 30 mins by HTRF assay
[2] = target: T2, Phosphatidylinositol 4,5-bisphosphate 3-kinase catalytic subunit delta isoform (Homo sapiens, UniProt O00329); experiment: Inhibition of PI3Kdelta (unknown origin) using PIP2 as substrate measured after 30 mins by HTRF assay
T2 sequence (O00329 whole entry): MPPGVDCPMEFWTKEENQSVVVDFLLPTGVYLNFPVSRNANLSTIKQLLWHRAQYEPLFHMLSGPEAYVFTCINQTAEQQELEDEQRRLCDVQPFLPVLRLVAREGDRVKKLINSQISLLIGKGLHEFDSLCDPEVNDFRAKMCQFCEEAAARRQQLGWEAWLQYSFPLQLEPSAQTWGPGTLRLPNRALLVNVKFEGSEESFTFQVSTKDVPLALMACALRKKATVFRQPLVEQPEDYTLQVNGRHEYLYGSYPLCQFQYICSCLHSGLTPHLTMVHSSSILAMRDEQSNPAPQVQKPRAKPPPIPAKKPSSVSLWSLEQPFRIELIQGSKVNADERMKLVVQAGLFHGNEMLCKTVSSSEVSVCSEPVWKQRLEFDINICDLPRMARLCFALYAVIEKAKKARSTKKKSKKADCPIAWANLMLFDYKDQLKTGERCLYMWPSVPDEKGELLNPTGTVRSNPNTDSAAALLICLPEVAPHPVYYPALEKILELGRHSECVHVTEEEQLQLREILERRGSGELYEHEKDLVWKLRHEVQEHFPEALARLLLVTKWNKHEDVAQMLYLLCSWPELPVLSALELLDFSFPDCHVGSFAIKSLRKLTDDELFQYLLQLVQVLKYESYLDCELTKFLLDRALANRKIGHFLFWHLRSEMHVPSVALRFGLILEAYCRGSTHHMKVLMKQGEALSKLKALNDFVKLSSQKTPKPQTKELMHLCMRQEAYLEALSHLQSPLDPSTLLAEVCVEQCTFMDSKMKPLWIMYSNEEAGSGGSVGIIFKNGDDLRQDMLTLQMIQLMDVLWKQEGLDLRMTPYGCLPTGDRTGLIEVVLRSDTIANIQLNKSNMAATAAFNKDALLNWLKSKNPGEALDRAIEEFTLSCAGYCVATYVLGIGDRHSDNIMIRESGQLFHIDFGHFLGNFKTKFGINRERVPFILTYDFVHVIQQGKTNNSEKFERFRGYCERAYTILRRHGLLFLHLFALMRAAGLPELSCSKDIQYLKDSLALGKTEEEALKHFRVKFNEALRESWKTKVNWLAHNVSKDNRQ

SU-DHL-6 = experiment: Antiproliferative activity against human SUDHL6 cells measured after 72 hrs by alamar blue assay; assay type: functional, cell-based; settings: SU-DHL-6, 72 h
[3] = target: T3, Phosphatidylinositol 4,5-bisphosphate 3-kinase catalytic subunit alpha isoform (Homo sapiens, UniProt P42336); experiment: Inhibition of PI3Kalpha (unknown origin) using PIP2 as substrate measured after 30 mins by HTRF assay
T3 sequence (P42336 whole entry, canonical isoform): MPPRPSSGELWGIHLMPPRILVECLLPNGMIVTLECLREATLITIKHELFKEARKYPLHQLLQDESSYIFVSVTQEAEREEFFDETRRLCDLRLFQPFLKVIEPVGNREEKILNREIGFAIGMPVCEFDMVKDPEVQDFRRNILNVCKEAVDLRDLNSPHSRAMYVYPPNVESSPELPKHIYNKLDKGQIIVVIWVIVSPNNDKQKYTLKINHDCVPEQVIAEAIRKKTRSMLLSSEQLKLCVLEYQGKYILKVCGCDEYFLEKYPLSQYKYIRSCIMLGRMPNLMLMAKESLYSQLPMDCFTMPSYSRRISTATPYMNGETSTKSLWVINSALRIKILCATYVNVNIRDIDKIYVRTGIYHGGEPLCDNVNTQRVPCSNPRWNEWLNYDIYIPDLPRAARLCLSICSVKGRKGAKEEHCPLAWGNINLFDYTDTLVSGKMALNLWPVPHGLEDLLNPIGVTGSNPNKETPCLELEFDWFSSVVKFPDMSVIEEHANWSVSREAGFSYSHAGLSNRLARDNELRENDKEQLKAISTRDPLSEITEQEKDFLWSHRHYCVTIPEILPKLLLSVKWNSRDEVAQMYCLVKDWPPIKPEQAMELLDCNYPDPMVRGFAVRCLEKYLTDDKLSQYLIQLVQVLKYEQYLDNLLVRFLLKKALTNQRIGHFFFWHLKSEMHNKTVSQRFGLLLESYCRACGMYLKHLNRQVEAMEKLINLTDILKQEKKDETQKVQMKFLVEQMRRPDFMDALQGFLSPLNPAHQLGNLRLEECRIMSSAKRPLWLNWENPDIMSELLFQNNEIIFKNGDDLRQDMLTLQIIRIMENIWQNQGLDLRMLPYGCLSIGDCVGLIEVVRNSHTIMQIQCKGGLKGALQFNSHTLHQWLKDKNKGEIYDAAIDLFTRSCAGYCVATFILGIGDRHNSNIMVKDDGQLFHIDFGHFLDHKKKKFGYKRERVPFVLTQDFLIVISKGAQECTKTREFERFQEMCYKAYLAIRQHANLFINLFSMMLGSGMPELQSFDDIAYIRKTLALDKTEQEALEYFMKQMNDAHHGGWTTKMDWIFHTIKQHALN

[4] = target: Phosphatidylinositol 4,5-bisphosphate 3-kinase catalytic subunit beta isoform (Homo sapiens, UniProt P42338); experiment: Inhibition of PI3Kbeta (unknown origin) using PIP2 as substrate measured after 30 mins by HTRF assay
[5] = target: T4, Phosphatidylinositol 4,5-bisphosphate 3-kinase catalytic subunit delta isoform (Homo sapiens) (UniProt O00329); experiment: Inhibition of PI3Kdelta-mediated Akt phosphorylation at […] in human SUDHL6 cells measured after 1 hr by Western blot analysis; assay type: cell-based
T4 sequence (whole entry): T2 sequence (O00329 whole entry)

[6] = target: T4, Phosphatidylinositol 4,5-bisphosphate 3-kinase catalytic subunit delta isoform (Homo sapiens); experiment: Inhibition of PI3Kdelta-mediated Akt phosphorylation at […] in human MOLT4 cells measured after 1 hr by Western blot analysis; assay type: cell-based
[7] = target: T4, Phosphatidylinositol 4,5-bisphosphate 3-kinase catalytic subunit delta isoform (Homo sapiens); experiment: Inhibition of PI3Kdelta-mediated S6k1 phosphorylation at T389 in human SUDHL6 cells measured after 1 hr by Western blot analysis; assay type: cell-based
[8] = target: T4, Phosphatidylinositol 4,5-bisphosphate 3-kinase catalytic subunit delta isoform (Homo sapiens); experiment: Inhibition of PI3Kdelta-mediated S6k1 phosphorylation at T389 in human MOLT4 cells measured after 1 hr by Western blot analysis; assay type: cell-based
[9] = target: T4, Phosphatidylinositol 4,5-bisphosphate 3-kinase catalytic subunit delta isoform (Homo sapiens); experiment: Inhibition of PI3Kdelta-mediated Akt phosphorylation in human SUDHL6 cells at 3 nM measured after 1 hr by Western blot analysis; assay type: cell-based
KARPAS-422 = experiment: Antiproliferative activity against human KARPAS422 cells measured after 72 hrs by alamar blue assay; assay type: functional, cell-based; settings: KARPAS-422, 72 h
[10] = Antiproliferative activity against human WSU-DLCL2 cells measured after 72 hrs by alamar blue assay; assay type: functional, cell-based; settings: WSUDLCL2, 72 h
HT = experiment: Antiproliferative activity against human HT cells measured after 72 hrs by alamar blue assay; assay type: functional, cell-based
Pfeiffer = experiment: Antiproliferative activity against human Pfeiffer cells measured after 72 hrs by alamar blue assay; assay type: functional, cell-based
NAMALVA = experiment: Antiproliferative activity against human NAMALWA cells measured after 72 hrs by alamar blue assay; assay type: functional, cell-based
SU-DHL-1 = experiment: Antiproliferative activity against human SU-DHL1 cells measured after 72 hrs by alamar blue assay; assay type: functional, cell-based; settings: SU-DHL-1, 72 h
SUD4 = experiment: Antiproliferative activity against human SU-DHL4 cells measured after 72 hrs by alamar blue assay; assay type: functional, cell-based; settings: SU-DHL-4, 72 h
SU-DHL10 = experiment: Antiproliferative activity against human SU-DHL10 cells measured after 72 hrs by alamar blue assay; assay type: functional, cell-based; settings: SU-DHL10, 72 h
MOLT-4 = experiment: Antiproliferative activity against human MOLT4 cells measured after 72 hrs by alamar blue assay; assay type: functional, cell-based; settings: MOLT-4, 72 h
[11] = target: Voltage-gated inwardly rectifying potassium channel KCNH2 (Homo sapiens, UniProt Q12809); experiment: Inhibition of human ERG; settings: read-out: IC50
Sequence of Voltage-gated inwardly rectifying potassium channel KCNH2 (Q12809 whole entry): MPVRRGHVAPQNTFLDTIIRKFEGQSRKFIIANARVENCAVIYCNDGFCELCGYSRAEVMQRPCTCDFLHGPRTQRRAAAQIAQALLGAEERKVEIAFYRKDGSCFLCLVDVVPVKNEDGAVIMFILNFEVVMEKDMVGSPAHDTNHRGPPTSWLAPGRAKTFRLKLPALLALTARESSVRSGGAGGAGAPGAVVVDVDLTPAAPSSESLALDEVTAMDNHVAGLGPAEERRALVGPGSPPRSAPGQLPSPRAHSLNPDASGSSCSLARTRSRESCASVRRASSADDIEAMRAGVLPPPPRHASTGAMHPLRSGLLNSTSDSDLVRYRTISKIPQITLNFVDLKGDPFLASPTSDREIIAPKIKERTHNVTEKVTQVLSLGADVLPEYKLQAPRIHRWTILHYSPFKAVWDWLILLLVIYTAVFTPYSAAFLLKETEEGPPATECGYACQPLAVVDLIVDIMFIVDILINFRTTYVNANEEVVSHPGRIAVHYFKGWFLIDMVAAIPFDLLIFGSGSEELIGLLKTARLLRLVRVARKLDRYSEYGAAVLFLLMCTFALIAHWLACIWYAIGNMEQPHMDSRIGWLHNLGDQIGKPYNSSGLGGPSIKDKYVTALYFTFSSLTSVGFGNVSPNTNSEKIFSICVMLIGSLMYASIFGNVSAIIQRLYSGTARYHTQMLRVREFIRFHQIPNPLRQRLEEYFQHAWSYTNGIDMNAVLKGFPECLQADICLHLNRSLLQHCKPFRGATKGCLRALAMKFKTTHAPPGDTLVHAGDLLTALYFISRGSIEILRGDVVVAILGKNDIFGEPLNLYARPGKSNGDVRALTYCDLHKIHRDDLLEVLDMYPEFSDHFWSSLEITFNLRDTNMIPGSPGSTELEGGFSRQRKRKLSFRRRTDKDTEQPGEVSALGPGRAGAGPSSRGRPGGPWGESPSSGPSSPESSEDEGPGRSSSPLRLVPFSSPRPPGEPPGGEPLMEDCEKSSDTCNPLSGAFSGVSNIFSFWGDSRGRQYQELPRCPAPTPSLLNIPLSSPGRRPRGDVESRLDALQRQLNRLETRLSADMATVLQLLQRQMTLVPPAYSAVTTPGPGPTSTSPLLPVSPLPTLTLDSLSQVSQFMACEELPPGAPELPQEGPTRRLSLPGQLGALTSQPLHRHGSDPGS

hERG (KCNH2) = hERG (KCNH2) (Homo sapiens, UniProt Q12809); experiment: Inhibition of human ERG at 40 uM relative to control
Sequence of hERG (KCNH2) (Q12809 whole entry): as above

[12] = Half life in Sprague-Dawley rat at 10 mg/kg, po; assay type: ADME, organism-based; settings: in vivo
[13] = AUClast in Sprague-Dawley rat at 10 mg/kg, po; assay type: ADME, organism-based; parameters: dose 10 mg/kg, time 0 - last, route oral; settings: in vivo
[14] = AUC (infinity) in Sprague-Dawley rat at 10 mg/kg, po; assay type: ADME, organism-based; parameters: dose 10 mg/kg, route oral, time infinity; settings: in vivo
[15] = Oral bioavailability in Sprague-Dawley rat at 10 mg/kg; assay type: ADME, organism-based; settings: in vivo
[16] = Half life in Sprague-Dawley rat at 5 mg/kg, iv; assay type: ADME, organism-based; settings: in vivo
[17] = AUClast in Sprague-Dawley rat at 5 mg/kg, iv; assay type: ADME, organism-based; parameters: dose 5 mg/kg, time 0 - last, route intravenous; settings: in vivo
Rattus norvegicus = experiment: AUC (infinity) in Sprague-Dawley rat at 5 mg/kg, iv; assay type: ADME, organism-based; parameters: dose 5 mg/kg, time infinity, route intravenous; settings: in vivo
[18] = Volume of distribution in Sprague-Dawley rat at 5 mg/kg, iv; assay type: ADME, organism-based; settings: in vivo
[19] = target: T2, Phosphatidylinositol 4,5-bisphosphate 3-kinase catalytic subunit delta isoform; experiment: Inhibition of PI3Kdelta (unknown origin) using biotinylated PIP2 as substrate after 2 hrs by TR-FRET assay
U-937 = experiment: Inhibition of phorbol 12-myristate 13-acetate-induced peroxide production in human U937 cells; assay type: functional, cell-based
[20] = target: T3, Phosphatidylinositol 4,5-bisphosphate 3-kinase catalytic subunit alpha isoform; experiment: Inhibition of PI3Kalpha (unknown origin) using biotinylated PIP2 as substrate after 2 hrs by TR-FRET assay
[21] = target: T1, Phosphatidylinositol 4,5-bisphosphate 3-kinase catalytic subunit gamma isoform; experiment: Inhibition of PI3Kgamma (unknown origin) using biotinylated PIP2 as substrate after 2 hrs by TR-FRET assay

T1 sequence (P48736 whole entry, canonical isoform): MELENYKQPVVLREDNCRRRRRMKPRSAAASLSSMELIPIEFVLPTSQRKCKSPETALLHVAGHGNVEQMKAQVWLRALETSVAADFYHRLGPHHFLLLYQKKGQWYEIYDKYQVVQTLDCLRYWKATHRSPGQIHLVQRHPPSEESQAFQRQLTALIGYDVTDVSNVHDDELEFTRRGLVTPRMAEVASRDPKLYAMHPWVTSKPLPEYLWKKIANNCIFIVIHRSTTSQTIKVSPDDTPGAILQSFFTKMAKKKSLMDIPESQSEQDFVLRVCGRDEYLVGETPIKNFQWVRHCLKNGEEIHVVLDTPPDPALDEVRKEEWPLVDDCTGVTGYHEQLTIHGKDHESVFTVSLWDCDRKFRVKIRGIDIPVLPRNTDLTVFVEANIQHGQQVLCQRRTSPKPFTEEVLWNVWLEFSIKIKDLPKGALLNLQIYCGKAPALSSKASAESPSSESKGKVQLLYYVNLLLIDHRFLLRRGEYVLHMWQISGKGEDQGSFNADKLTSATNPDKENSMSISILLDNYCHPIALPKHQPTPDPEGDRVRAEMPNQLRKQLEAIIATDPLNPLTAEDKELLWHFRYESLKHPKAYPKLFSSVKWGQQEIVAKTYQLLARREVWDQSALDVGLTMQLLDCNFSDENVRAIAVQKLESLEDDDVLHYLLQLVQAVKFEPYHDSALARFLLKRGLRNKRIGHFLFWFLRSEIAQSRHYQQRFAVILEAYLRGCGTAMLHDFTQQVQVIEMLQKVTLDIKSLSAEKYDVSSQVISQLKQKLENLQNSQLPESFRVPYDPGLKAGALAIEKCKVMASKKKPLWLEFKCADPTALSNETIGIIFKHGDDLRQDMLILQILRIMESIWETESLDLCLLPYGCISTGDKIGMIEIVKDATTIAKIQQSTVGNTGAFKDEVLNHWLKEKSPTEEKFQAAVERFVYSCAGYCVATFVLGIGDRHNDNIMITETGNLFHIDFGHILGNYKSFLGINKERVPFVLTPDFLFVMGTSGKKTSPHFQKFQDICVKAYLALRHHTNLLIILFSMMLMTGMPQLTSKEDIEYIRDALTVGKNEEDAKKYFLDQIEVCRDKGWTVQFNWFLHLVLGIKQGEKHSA

- IC50 [1]: 91.9 nM
- IC50 [2]: 3.82 nM
- IC50 (SU-DHL-6): 7.6 nM
- IC50 [3]: 591 nM
- IC50 [4]: 509 nM
- inhibition [5]: Dose-dependent effect
- inhibition [6]: Dose-dependent effect
- inhibition [7]: Dose-dependent effect
- inhibition [8]: Dose-dependent effect
- inhibition [9]: Active
- IC50 (KARPAS-422): 2000 nM
- IC50 (SU-DHL-1): 5600 nM
- IC50 (SU-DHL10): 1900 nM
- IC50 (MOLT-4): 2400 nM
- half-life [12]: 1.46 h
- AUC(0-t) [13]: 938 ng·h/mL
- AUC(0-inf) [14]: 958 ng·h/mL
- bioavailability [15]: 29.7%
- half-life [16]: 1.28 h
- AUC(0-t) [17]: 1050 ng·h/mL
- AUC (Rattus norvegicus): 1057 ng·h/mL
- Vd [18]: 0.545 L/kg
SMILES: CC[C@H](Nc1nc(N)nc(N)c1C#N)c1nc2cccc(C#CCCCC(=O)N3CCOCC3)c2c(=O)n1-c1ccccc1
- IC50 [10]: 5700 nM
- IC50 (HT): 4900 nM
- IC50 (Pfeiffer): 1400 nM
- IC50 (NAMALVA): 3300 nM
- IC50 (SUD4): 1600 nM
- IC50 [11]: > 40000 nM
- inhibition at 40 µM (hERG (KCNH2)): 34.1%

- IC50 [19]: 3 to 12 nM
- IC50 (U-937): 1.1 nM
- IC50 [20]: 1490 nM
- IC50 [21]: 47 nM
SMILES: COCCOCCNC(=O)CCCC#Cc1cccc2nc(Cn3nc(-c4cccc(O)c4)c4c(N)ncnc43)n(Cc3ccccc3Cl)c(=O)c12

From ChEMBL document CHEMBL4041516, “SAR study of 5-alkynyl substituted quinazolin-4(3H)-ones as phosphoinositide 3-kinase delta (PI3Kδ) inhibitors” (Eur J Med Chem, 2017)
